# Data published in patent US20150005281A1, “PYRIMIDINE-2,4-DIAMINE DERIVATIVES AS KINASE INHIBITORS” (Cellzome Limited, priority 2011, published 2015).
# Legend:
# Format in all cases: binding
# [1] = biological target: T1, JAK3 (Homo sapiens, UniProt P52333); assay: Kinobeads assay with immunodetection, JAK3; details: for IC50: Kinobeads assay, mixed Molt4/Ramos lysate, read-out: Inhibition values (IC50) JAK3
# T1 construct: endogenous in cells; host or cells: Molt4 (ATCC CRL-1582) and Ramos (ATCC CRL-1596) cells; mixed lysate 1:2
# T1 sequence (P52333 1-1124): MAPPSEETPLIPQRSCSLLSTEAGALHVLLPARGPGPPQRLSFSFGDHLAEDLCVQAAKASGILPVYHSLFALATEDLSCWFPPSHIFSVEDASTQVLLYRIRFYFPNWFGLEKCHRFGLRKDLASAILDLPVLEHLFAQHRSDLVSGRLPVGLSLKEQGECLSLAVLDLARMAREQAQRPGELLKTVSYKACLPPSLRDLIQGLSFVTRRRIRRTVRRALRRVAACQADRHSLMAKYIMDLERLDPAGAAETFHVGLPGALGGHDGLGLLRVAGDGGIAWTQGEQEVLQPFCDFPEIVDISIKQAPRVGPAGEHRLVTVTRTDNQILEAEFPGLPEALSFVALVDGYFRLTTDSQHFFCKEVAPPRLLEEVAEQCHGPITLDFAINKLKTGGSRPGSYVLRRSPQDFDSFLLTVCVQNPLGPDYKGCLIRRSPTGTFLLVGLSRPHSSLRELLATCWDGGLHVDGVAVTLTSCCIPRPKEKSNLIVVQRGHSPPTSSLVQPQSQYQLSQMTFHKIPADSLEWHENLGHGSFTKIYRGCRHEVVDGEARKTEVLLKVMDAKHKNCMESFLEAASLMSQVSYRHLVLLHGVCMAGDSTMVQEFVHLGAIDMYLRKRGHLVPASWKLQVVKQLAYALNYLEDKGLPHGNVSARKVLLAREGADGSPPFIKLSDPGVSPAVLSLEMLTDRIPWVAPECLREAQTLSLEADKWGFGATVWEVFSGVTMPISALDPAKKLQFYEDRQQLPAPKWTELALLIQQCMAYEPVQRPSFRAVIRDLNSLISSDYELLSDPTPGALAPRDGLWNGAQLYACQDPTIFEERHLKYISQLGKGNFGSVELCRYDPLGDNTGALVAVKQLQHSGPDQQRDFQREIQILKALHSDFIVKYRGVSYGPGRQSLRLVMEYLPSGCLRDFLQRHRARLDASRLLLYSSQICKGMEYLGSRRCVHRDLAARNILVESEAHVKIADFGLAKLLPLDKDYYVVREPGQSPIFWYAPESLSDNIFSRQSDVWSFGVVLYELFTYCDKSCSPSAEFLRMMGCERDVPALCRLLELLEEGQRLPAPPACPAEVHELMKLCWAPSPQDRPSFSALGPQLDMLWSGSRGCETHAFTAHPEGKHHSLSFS
# Method in brief: (§1)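 Lysates of Molt4 and Ramos cells, combined 1:2 and diluted to 10 mg/mL in Tris pH 7.4 buffer with 0.8% NP40, are incubated for 3 h in the cold with compound and the affinity matrix. Beads are washed, eluted in SDS buffer, and kinases are quantified by infrared immunodetection to give IC50s.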
# [2] = biological target: T2, JAK2 (Homo sapiens, UniProt O60674); assay: Kinobeads assay with immunodetection, JAK2; details: mixed Molt4/Ramos lysate, read-out: Inhibition values (IC50) JAK2
# T2 construct: endogenous in cells; host or cells: Molt4 (ATCC CRL-1582) and Ramos (ATCC CRL-1596) cells; mixed lysate 1:2
# Method in brief: as §1
# [3] = biological target: T3, TYK2 (Homo sapiens, UniProt P29597); assay: Kinobeads assay with immunodetection, TYK2; details: for IC50: Kinobeads assay, mixed Molt4/Ramos lysate, read-out: Inhibition values (IC50) Tyk2
# T3 construct: endogenous in cells; host or cells: Molt4 (ATCC CRL-1582) and Ramos (ATCC CRL-1596) cells; mixed lysate 1:2
# Method in brief: as §1
# [4] = biological target: T4, JAK1 (Homo sapiens, UniProt P23458); assay: Kinobeads assay with immunodetection, JAK1; details: for IC50: Kinobeads assay, mixed Molt4/Ramos lysate, read-out: Inhibition values (IC50) JAK1
# T4 construct: endogenous in cells; host or cells: Molt4 (ATCC CRL-1582) and Ramos (ATCC CRL-1596) cells; mixed lysate 1:2
# Method in brief: as §1
# T4 sequence (P23458 whole entry): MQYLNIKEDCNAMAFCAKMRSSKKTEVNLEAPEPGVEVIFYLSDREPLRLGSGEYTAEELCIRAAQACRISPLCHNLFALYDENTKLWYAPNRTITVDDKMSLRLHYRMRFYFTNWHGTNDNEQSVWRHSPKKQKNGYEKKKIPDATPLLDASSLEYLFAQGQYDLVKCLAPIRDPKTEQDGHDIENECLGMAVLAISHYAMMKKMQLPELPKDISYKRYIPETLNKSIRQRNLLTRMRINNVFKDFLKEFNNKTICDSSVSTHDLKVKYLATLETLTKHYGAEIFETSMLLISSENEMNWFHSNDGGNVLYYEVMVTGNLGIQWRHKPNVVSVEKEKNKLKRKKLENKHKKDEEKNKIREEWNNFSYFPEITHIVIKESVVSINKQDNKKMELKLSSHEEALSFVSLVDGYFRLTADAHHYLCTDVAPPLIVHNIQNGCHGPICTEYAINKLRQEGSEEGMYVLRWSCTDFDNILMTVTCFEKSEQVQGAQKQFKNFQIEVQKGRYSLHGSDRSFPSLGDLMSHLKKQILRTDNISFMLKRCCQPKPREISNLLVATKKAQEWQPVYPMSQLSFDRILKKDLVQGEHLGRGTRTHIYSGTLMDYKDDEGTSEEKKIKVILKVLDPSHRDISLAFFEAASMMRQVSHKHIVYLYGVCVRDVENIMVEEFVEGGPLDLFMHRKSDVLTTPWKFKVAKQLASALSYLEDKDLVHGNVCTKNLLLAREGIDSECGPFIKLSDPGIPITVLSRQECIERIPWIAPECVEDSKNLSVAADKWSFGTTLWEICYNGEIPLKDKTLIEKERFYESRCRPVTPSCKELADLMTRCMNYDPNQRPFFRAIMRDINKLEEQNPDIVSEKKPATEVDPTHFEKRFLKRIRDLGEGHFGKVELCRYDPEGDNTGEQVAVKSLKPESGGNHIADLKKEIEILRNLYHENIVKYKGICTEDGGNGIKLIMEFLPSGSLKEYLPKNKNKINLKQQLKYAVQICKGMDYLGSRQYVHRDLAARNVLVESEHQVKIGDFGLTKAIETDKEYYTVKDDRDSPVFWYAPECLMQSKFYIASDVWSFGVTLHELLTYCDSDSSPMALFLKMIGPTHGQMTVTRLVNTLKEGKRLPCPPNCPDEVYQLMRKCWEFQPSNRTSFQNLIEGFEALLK
# T2 sequence (O60674 whole entry): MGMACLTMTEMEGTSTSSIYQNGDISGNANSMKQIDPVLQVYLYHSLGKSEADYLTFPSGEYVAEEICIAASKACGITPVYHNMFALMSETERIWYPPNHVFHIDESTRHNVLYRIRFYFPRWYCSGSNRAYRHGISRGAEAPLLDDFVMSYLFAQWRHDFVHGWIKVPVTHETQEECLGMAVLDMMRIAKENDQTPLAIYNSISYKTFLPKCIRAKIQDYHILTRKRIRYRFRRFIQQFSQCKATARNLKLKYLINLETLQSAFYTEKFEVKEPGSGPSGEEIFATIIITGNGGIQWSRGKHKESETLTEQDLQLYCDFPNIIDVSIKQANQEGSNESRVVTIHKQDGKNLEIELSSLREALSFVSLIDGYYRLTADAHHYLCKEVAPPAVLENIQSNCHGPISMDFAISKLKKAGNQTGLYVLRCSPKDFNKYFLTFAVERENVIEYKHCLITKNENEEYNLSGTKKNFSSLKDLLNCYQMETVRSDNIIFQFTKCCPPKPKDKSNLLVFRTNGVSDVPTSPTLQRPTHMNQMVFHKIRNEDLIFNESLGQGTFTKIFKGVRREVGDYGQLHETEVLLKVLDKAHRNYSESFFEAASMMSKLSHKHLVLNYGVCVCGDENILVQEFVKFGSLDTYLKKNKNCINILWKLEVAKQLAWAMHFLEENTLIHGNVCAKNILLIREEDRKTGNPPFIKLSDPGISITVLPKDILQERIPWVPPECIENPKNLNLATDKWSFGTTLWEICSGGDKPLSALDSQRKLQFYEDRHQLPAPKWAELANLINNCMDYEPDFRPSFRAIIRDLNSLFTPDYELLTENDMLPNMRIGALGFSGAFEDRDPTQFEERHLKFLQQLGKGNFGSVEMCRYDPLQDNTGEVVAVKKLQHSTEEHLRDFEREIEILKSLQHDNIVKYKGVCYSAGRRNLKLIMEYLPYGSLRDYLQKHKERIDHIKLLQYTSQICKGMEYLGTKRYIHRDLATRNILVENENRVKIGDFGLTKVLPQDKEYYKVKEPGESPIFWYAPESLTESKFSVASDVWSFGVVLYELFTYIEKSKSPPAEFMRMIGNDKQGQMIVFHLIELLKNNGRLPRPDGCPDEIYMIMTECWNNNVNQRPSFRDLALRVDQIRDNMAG
# T3 sequence (P29597 whole entry): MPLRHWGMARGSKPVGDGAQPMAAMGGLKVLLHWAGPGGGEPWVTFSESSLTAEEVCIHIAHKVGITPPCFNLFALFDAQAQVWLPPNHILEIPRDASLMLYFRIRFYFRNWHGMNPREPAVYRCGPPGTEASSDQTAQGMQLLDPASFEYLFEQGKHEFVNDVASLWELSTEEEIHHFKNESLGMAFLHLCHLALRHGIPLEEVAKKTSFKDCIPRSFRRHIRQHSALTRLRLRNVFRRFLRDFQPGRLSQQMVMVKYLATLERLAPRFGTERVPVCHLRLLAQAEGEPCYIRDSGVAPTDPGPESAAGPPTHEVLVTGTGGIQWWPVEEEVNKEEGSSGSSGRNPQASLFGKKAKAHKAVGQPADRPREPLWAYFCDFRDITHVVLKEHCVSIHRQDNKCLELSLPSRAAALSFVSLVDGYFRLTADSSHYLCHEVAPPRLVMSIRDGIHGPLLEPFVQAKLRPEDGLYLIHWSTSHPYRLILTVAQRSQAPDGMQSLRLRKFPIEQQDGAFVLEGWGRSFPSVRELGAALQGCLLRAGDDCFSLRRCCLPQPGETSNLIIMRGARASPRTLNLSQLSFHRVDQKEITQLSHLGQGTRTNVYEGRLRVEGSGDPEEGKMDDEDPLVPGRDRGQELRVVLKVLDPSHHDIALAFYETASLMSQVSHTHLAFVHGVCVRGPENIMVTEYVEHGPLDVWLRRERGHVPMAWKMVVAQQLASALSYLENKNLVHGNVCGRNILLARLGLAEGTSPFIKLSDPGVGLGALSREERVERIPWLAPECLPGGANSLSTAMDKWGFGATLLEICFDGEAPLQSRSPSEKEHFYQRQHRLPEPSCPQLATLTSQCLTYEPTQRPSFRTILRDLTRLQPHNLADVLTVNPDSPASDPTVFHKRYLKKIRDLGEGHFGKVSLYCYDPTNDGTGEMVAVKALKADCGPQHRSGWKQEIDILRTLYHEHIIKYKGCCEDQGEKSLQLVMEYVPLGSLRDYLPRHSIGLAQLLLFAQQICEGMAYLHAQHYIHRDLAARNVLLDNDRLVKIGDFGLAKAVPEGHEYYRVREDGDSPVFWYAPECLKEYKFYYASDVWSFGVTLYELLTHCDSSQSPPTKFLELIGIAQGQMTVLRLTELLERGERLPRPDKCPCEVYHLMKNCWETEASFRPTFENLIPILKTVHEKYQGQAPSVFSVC
SMILES,IC50 [1],IC50 [2],IC50 [3],"Selectivity ratio over JAK2, Tyk2 [3]",IC50 [4],"Selectivity ratio over JAK2, JAK1 [4]","Selectivity ratio over JAK2, JAK3 [1]"
"Cl.Cn1cc(Nc2ncc(F)c(NC[C@@H]3CCCN3S(C)(=O)=O)n2)cn1 [Example 75, (S)-5-fluoro-N2-(1-methyl-1H-pyrazol-4-yl)-N4-((1-(methylsulfonyl)pyrrolidin-2-yl)methyl)pyrimidine-2,4-diamine Hydrochloride]",100 to 1000 nM,1000 to 10000 nM,< 100 nM,Tyk2 = 28,< 100 nM,–,–
"CCN1CCC[C@@H]1CNc1nc(Nc2cnn(C)c2)ncc1Cl [Example 60, (R)-5-chloro-N^4-((1-ethylpyrrolidin-2-yl)methyl)-N^2-(1-methyl-1H-pyrazol-4-yl)pyrimidine-2,4-diamine]",100 to 1000 nM,> 10000 nM,100 to 1000 nM,–,100 to 1000 nM,JAK1 = 45,–
"CC(C)NC(=O)Cn1cc(Nc2nccc(NC[C@H]3CCCN3C(=O)CC#N)n2)cn1 [Example 96, (R)-2-(4-((4-(((1-(2-cyanoacetyl)pyrrolidin-2-yl)methyl)amino)pyrimidin-2-yl)amino)-1H-pyrazol-1-yl)-N-isopropylacetamide]",1000 to 10000 nM,> 10000 nM,< 100 nM,Tyk2 = 555,100 to 1000 nM,–,–
"Cc1cnc(Nc2cnn(CC(F)F)c2)nc1NC[C@@H]1C[C@H](F)CN1CCS(C)(=O)=O [Example 120, N^2-(1-(2,2-difluoroethyl)-1H-pyrazol-4-yl)-N^4-(((2S,4S)-4-fluoro-1-(2-(methylsulfonyl)ethyl)pyrrolidin-2-yl)methyl)-5-methylpyrimidine-2,4-diamine]",1000 to 10000 nM,1000 to 10000 nM,100 to 1000 nM,–,< 100 nM,JAK1 = 81,–
"Cn1cc(Nc2ncc(Cl)c(NC[C@H]3CCCN3CCS(C)(=O)=O)n2)cn1 [Example 50, (R)-5-chloro-N^2-(1-methyl-1H-pyrazol-4-yl)-N^4-((1-(2-(methylsulfonyl)ethyl)pyrrolidin-2-yl)methyl)pyrimidine-2,4-diamine]",< 100 nM,100 to 1000 nM,< 100 nM,Tyk2 = 25,< 100 nM,–,–
"Cn1cc(Nc2ncc(Cl)c(NC[C@H]3CCCN3S(=O)(=O)C3CC3)n2)cn1 [Example 98, (R)-5-chloro-N^4-((1-(cyclopropylsulfonyl)pyrrolidin-2-yl)methyl)-N^2-(1-methyl-1H-pyrazol-4-yl)pyrimidine-2,4-diamine]",< 100 nM,100 to 1000 nM,< 100 nM,–,< 100 nM,–,JAK3 = 53

# Other lines, results leading:
IC50 [1],IC50 [2],IC50 [3],"Selectivity ratio over JAK2, Tyk2 [3]",IC50 [4],"Selectivity ratio over JAK2, JAK1 [4]","Selectivity ratio over JAK2, JAK3 [1]",SMILES
< 100 nM,100 to 1000 nM,< 100 nM,–,< 100 nM,–,JAK3 = 85,"Cn1cc(Nc2ncc(Cl)c(NC[C@H]3CCCN3CC#N)n2)cn1 [Example 131, (R)-2-(2-(((5-chloro-2-((1-methyl-1H-pyrazol-4-yl)amino)pyrimidin-4-yl)amino)methyl)pyrrolidin-1-yl)acetonitrile]"
< 100 nM,100 to 1000 nM,< 100 nM,Tyk2 = 14,< 100 nM,–,–,"CCS(=O)(=O)N1CCC[C@@H]1CNc1nc(Nc2cnn(C)c2)ncc1Cl [Example 51, (R)-5-chloro-N^4-((1-(ethylsulfonyl)pyrrolidin-2-yl)methyl)-N^2-(1-methyl-1H-pyrazol-4-yl)pyrimidine-2,4-diamine]"
< 100 nM,1000 to 10000 nM,100 to 1000 nM,–,< 100 nM,–,JAK3 = 155,"Cn1cc(Nc2ncc(Cl)c(NC[C@H]3CCCN3CC(=O)NCC#N)n2)cn1 [Example 99, (R)-2-(2-(((5-chloro-2-((1-methyl-1H-pyrazol-4-yl)amino)pyrimidin-4-yl)amino)methyl)pyrrolidin-1-yl)-N-(cyanomethyl)acetamide]"
